Holding throughout (format): in vivo, C57BL/6 J male mice
Assay [1] concerns WR mice. Nature of the assay: WR model: glucose metabolism, gWAT inflammation, hepatic steatosis at 4 weeks post-treatment. To be noted: for macrophage marker F4/80 and CLS formation in gWAT: 4 weeks of the weight regaining phase. The source says: (§1) To assess post-treatment weight rebound (WR), the mice previously treated with vehicle, LJ-4378, or TZP were maintained on HFD for an additional 4 weeks following treatment cessation. Treatment protocols for the WR groups were identical to those of the HFD groups. In total, nine experimental groups were established: NCD + CTL, NCD + LJ, NCD + TZP; HFD + CTL, HFD + LJ, HFD + TZP; and WR + CTL, WR + LJ, WR + TZP. The volume of oxygen consumed (VO2), carbon dioxide produced (VCO2), respiratory exchange ratio (RER), energy expenditure, activity, and food intake were measured with PhenoMaster (TSE Systems, Bad Homburg, Germany). Indirect calorimetry was performed under controlled conditions, with a stable ambient temperature of 24 °C and a 12 h light/12-h dark cycle. Mice fed HFD were administered vehicle, LJ-4378, or TZP for 14 days, and the last 2 days of treatment were conducted during indirect calorimetry analysis. The WR model was examined by indirect calorimetry after 2 and 4 weeks of the weight regaining phase.
For protein extraction, we utilized PRO-RERP Protein Extraction Solution (17081, iNtRON Biotechnology, Gyeonggi-do, Korea), supplemented with […] Protease Inhibitor (S8820, Sigma, St. Louis, MO, USA) and PhosSTOP phosphatase inhibitor (#4906837001, Roche, Basel, Switzerland). Protein concentrations were determined using the Pierce BCA protein assay Kit (#23227, Thermo Fisher, Waltham, Massachusetts, USA) by measuring absorbance at 562 nm with a MultiSkan GO spectrophotometer (Thermo Fisher). The quantified proteins were loaded and separated in 12% SDS-PAGE gels and transferred to polyvinylidene difluoride (PVDF) membranes (Bio-Rad, Hercules, CA, USA). Membranes were blocked in 5% bovine serum albumin or skim milk in Tris-buffered saline with 0.1% Tween 20 (TBST) for 1 h, followed by overnight incubation with primary antibodies. The next day, membranes were washed 3 times with TBST and incubated for 1 h with horseradish peroxidase (HRP)-conjugated secondary antibody: Goat anti-rabbit (1:3000, #31460, Thermo Fisher) and Goat anti-Mouse IgG (1:3000, 115–035-174, Jackson ImmunoResearch). After secondary antibody incubation, membranes were washed 3 times with TBST and detected with the Fusion Solo chemiluminescence imaging system (Vilber Lourmat, France). EvolutionCapt (version 17.03) software and the ImageJ (National Institutes of Health, Bethesda, MD, USA) program were used for analysis and to quantify the protein level.
RT-qPCR was conducted according to the method (Cho et al. [2022]). The tissue samples were lysed in TRIzol (#15596018, Thermo Fisher), and the total RNA was extracted. The extracted RNA was synthesized into cDNA using the cDNA Reverse Transcription Kit (Applied Biosystems, Waltham, MA, USA). mRNA levels were quantified using iQ SYBR Green Supermix on the CFX Connect Real-time system (Bio-rad). Relative expression levels of each gene were calculated using the […] method, with the reference housekeeping gene as follows: Peptidylprolyl isomerase A (Ppia) for adipose tissue and glyceraldehyde-3-phosphate dehydrogenase (Gapdh) for hypothalamus.
The glucose tolerance test was conducted on mice fasted for 12 h with ad libitum access to water. Mice were intraperitoneally injected with 20% D-( +)-glucose (2 g/kg body weight, #49139, Sigma), and blood glucose levels were measured at each time point using a Gluco Doctor Top meter and strip (Allmedicus, South Korea).
Adipose tissues were fixed in 10% formalin (HT50128, Sigma) for 2 days and made into paraffin slides. The deparaffinized sections were stained with ClearView Staining Hematoxylin (MA010081, BBC Biochemical, Mount Vernon, WA, USA) and Eosin Y Alcoholic (#3610, BBC Biochemical) solution. The crown-like structure formation of gonadal white adipose tissue (gWAT) and triglyceride (TG) accumulation in the liver are observed using hematoxylin and eosin staining on paraffin slides. The images were captured using Nikon Elements (NIS BR Analysis ver 5.10.00). […]

The test system of assay [2] is WR mice. The experiment in a line: Weight rebound (WR) model: body weight, food intake, adiposity after treatment cessation. Particulars: for body weight after treatment cessation: 4 weeks post-cessation on HFD; for food intake after withdrawal: 16 days after cessation; for body weight regained over 4 weeks as a percentage of the initial weight loss: WR groups, 4 weeks after 14-day treatment; for food intake during the 14-day treatment: measured every 2 days.
From the text: as §1
Additionally, food consumption was measured every 2 days during the 14-day treatment period and for an additional 16 days post-administration.
Body composition and micro-CT analysis were performed after the treatment with vehicle, LJ-4378, or TZP for the indicated duration in HFD-fed mice and WR mice.
A nuclear magnetic resonance (NMR) technology system with EchoMRI-700 (Echo Medical Systems, […]) was used to analyze body composition.
To assess the abdominal fat volume, we employed the Quantum GX2 micro-CT imaging system (PerkinElmer, Waltham, MA, USA). Mice were anesthetized with isoflurane and positioned on the micro-CT bed for imaging of the abdominal region, defined from the proximal end of the L1 vertebra to the distal end of the L5 vertebra. Imaging was performed at 90 kV/88 µA with a field of view of 72 mm, a pixel size of 90 µm, and a 2-min acquisition time at standard resolution. Visceral, subcutaneous, and total abdominal fat volumes were quantified using AnalyzeDirect software (ver. 12.0, Overland Park, KS, USA).

Assay [3] concerns HFD-fed mice. The experiment in a line: Immunoblot of lipolytic, thermogenic and mitochondrial proteins in BAT and iWAT; serum FFA. To be noted: for P-HSL, P-CREB, UCP1 and COXIV levels in BAT: western blot. The protocol:
(§2) To evaluate the anti-obesity effect in vivo, mice fed either NCD or HFD for 10 weeks were subsequently treated for up to 4 weeks. To control for injection route-related variables, all mice received both intraperitoneal (I.P.) and subcutaneous (S.C.) injections. The administration were as follows: LJ-4378 treated mice received LJ-4378, which was synthesized in our laboratory at > 95% purity (1 mg/kg/day, I.P.) (Hou et al. [2010]; Kim et al. [2022]) along with the vehicle for TZP (40 mM Tris–HCl, pH 8, S.C.); TZP treated mice received TZP (Samms et al. [2021]; Kim et al. [2022]) (LY3298176, MedChemExpress, Monmouth Junction, NJ, USA) (10 nmol/kg/day, S.C.) along with the vehicle for LJ-4378 (0.2% DMSO, I.P.); vehicle control mice received both vehicles (0.2% DMSO, I.P. and 40 mM Tris–HCl, pH 8, S.C.)
Serum free fatty acid (FFA) levels were quantification using HR Series NEFA-HR (2) (Color Reagent A (#999–34691), Solvent A (#995–34791), Color Reagent B (#991–34891), Solvent B (#993–35191), and NEFA Standard Solution (#276–76491) (FUJIFILM Wako Pure Chemicals, Osaka, Japan), following the manufacturer’s instruction.
For protein extraction, we utilized PRO-RERP Protein Extraction Solution (17081, iNtRON Biotechnology, Gyeonggi-do, Korea), supplemented with […] […] Protein concentrations were determined using the Pierce BCA protein assay Kit (#23227, Thermo Fisher, Waltham, Massachusetts, USA) by measuring absorbance at 562 nm with a MultiSkan GO spectrophotometer (Thermo Fisher). The quantified proteins were loaded and separated in 12% SDS-PAGE gels and transferred to polyvinylidene difluoride (PVDF) membranes (Bio-Rad, Hercules, CA, USA). […] After secondary antibody incubation, membranes were washed 3 times with TBST and detected with the Fusion Solo chemiluminescence imaging system (Vilber Lourmat, France). EvolutionCapt (version 17.03) software and the ImageJ (National Institutes of Health, Bethesda, MD, USA) program were used for analysis and to quantify the protein level.

The test system of assay [4] is HFD-fed mice. The experiment in a line: Indirect calorimetry and food intake in HFD-fed mice. Particulars: for energy expenditure adjusted for body weight and lean body mass (ANCOVA) / food intake (indirect calorimetry): HFD-fed mice; for VO2, VCO2 and energy expenditure: relative to HFD controls, last 2 days of 14-day treatment. How it is done: as §2, §1
Where [5] appears, read: 4 weeks after treatment cessation.

As for `CCCCC#Cc1nc(N)c2ncn([C@@H]3SC[C@@H](O)[C@H]3O)c2n1` [LJ-4378], the “macrophage marker F4/80 and CLS formation in gWAT” value with WR mice [1] was “maintained lower levels of macrophage accumulation”. Further, in the assay on WR mice [1] (4 weeks post-treatment, WR), the “fasting glucose levels, versus TZP-treated group” value was “lower”; the “glucose clearance in glucose tolerance test, versus TZP-treated group” value was “enhanced glucose clearance”; the “hepatic triglyceride (TG) deposition, versus TZP” value is listed as “significantly lower”. For the same compound, in the assay on WR mice [1] (after 4 weeks of WR), the “Tnf-α and Arg1 mRNA levels in gWAT” value was “reduced Tnf-α and increased Arg1 mRNA levels were maintained”. In the assay on WR mice [2] (setting [5]), the “gWAT and visceral abdominal fat, compared with the TZP group” value is on record as “reduction”; the “whole-body fat ratio, LJ-4378 versus TZP” value is on record as “significantly lower”. In addition, in the assay on WR mice [2], the “body weight after treatment cessation” value is given as “maintained a relatively low body weight”, the “food intake after withdrawal” value is listed as “did not alter food intake during or after treatment”, the “body weight regained over 4 weeks as a percentage of the initial weight loss” value stood at 88% and the “food intake during the 14-day treatment” value is given as “did not alter food intake during or after treatment”. Moreover, in the assay with HFD-fed mice [3], the “UCP1 expression in BAT, LJ-4378 versus TZP” value is given as “more strongly induced”; the “P-HSL, P-CREB, UCP1 and COXIV levels in BAT” value is given as “elevated levels”. Besides, in the assay on HFD-fed mice [4], the “energy expenditure adjusted for body weight and lean body mass (ANCOVA)” value is given as “consistently increased energy expenditure”; the “food intake (indirect calorimetry)” value is recorded as “did not affect the feeding behavior”; the “VO2, VCO2 and energy expenditure” value was “significantly increased”.
With Tirzepatide [TZP, reference compound], the “macrophage marker F4/80 and CLS formation in gWAT” value with WR mice [1] is “re-elevated”. Also, in the assay on WR mice [2], the “body weight after treatment cessation” value was “rapid weight regain”, the “food intake after withdrawal” value is “sharp rebound in food consumption”, the “body weight regained over 4 weeks as a percentage of the initial weight loss” value worked out at 127% and the “food intake during the 14-day treatment” value is “significantly suppressed food intake”. Also, the “P-HSL, P-CREB, UCP1 and COXIV levels in BAT” value in the assay on HFD-fed mice [3] is given as “elevated levels”. Besides, in the assay with HFD-fed mice [4], the “energy expenditure adjusted for body weight and lean body mass (ANCOVA)” value is listed as “not significant when LBM was used as the covariate”; the “food intake (indirect calorimetry)” value is recorded as “reduced food consumption”; the “VO2, VCO2 and energy expenditure” value was “significantly increased”.
